Source: the supplement of paper PMC10307832

Columns and labels:
Experiment in all cases: relative viability (nuclei count vs DMSO), 5 days (fraction); higher = more cells survive
CAP-232 + Dasatinib = compound: C[C@H]([C@@H](C(=O)N)NC(=O)[C@@H]1CSSC[C@@H](C(=O)N[C@H](C(=O)N[C@@H](C(=O)N[C@H](C(=O)N1)CCCCN)CC2=CNC3=CC=CC=C32)CC4=CC=C(C=C4)O)NC(=O)[C@@H](CC5=CC=CC=C5)N)O [CAP-232] + Cc1nc(Nc2ncc(C(=O)Nc3c(C)cccc3Cl)s2)cc(N2CCN(CCO)CC2)n1 [Dasatinib] (partner 0.075 µM)
Method in brief: (§1)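 The day after seeding in 1536-well plates, lung cancer cell lines were treated by pin tool with a single drug, or with a fixed anchor-drug dose together with five library-drug doses (not always all listed) in √10 steps. After 5 days, a combined fix-and-stain solution (final 0.05% Triton X-100, 1% formaldehyde, 1 ug/ml Hoechst) was added. Nuclei counted on 4× images gave relative viability as treated counts over vehicle counts, reported as the median of duplicate plates.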

CAP-232 + Vorinostat = compound: C[C@H]([C@@H](C(=O)N)NC(=O)[C@@H]1CSSC[C@@H](C(=O)N[C@H](C(=O)N[C@@H](C(=O)N[C@H](C(=O)N1)CCCCN)CC2=CNC3=CC=CC=C32)CC4=CC=C(C=C4)O)NC(=O)[C@@H](CC5=CC=CC=C5)N)O [CAP-232] + O=C(CCCCCCC(=O)Nc1ccccc1)NO [Vorinostat] (partner 1 µM)
Method in brief: as §1

CAP-232 + Navitoclax = compound: C[C@H]([C@@H](C(=O)N)NC(=O)[C@@H]1CSSC[C@@H](C(=O)N[C@H](C(=O)N[C@@H](C(=O)N[C@H](C(=O)N1)CCCCN)CC2=CNC3=CC=CC=C32)CC4=CC=C(C=C4)O)NC(=O)[C@@H](CC5=CC=CC=C5)N)O [CAP-232] + CC1(C)CCC(c2ccc(Cl)cc2)=C(CN2CCN(c3ccc(C(=O)NS(=O)(=O)c4ccc(N[C@H](CCN5CCOCC5)CSc5ccccc5)c(S(=O)(=O)C(F)(F)F)c4)cc3)CC2)C1 [Navitoclax] (partner 0.5 µM)
Method in brief: as §1

CAP-232 + Lapatinib = compound: C[C@H]([C@@H](C(=O)N)NC(=O)[C@@H]1CSSC[C@@H](C(=O)N[C@H](C(=O)N[C@@H](C(=O)N[C@H](C(=O)N1)CCCCN)CC2=CNC3=CC=CC=C32)CC4=CC=C(C=C4)O)NC(=O)[C@@H](CC5=CC=CC=C5)N)O [CAP-232] + CS(=O)(=O)CCNCc1ccc(-c2ccc3ncnc(Nc4ccc(OCc5cccc(F)c5)c(Cl)c4)c3c2)o1 [Lapatinib] (partner 2 µM)
Method in brief: as §1

CAP-232 = compound: C[C@H]([C@@H](C(=O)N)NC(=O)[C@@H]1CSSC[C@@H](C(=O)N[C@H](C(=O)N[C@@H](C(=O)N[C@H](C(=O)N1)CCCCN)CC2=CNC3=CC=CC=C32)CC4=CC=C(C=C4)O)NC(=O)[C@@H](CC5=CC=CC=C5)N)O [CAP-232]
Method in brief: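 Viability here means nuclei in treated wells divided by nuclei in vehicle wells, reported as the median across plates. Only plates with control CV below 25% and at least one doubling passed. Lung cancer cell lines in 1536-well plates were exposed to five √10-spaced library-drug doses for 5 days and counted from 4× Hoechst images in MetaXpress.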

Cell Line	relative viability (CAP-232 + Dasatinib; first compound 0.4 µM)	relative viability (CAP-232 + Dasatinib; first compound 1.265 µM)	relative viability (CAP-232 + Dasatinib; first compound 4 µM)	relative viability (CAP-232 + Dasatinib; first compound 12.65 µM)	relative viability (CAP-232 + Vorinostat; first compound 0.4 µM)	relative viability (CAP-232 + Vorinostat; first compound 1.265 µM)	relative viability (CAP-232 + Vorinostat; first compound 4 µM)	relative viability (CAP-232 + Vorinostat; first compound 12.65 µM)	relative viability (CAP-232 + Navitoclax; first compound 0.4 µM)	relative viability (CAP-232 + Navitoclax; first compound 1.265 µM)	relative viability (CAP-232 + Navitoclax; first compound 4 µM)	relative viability (CAP-232 + Navitoclax; first compound 12.65 µM)	relative viability (CAP-232 + Lapatinib; first compound 0.4 µM)	relative viability (CAP-232 + Lapatinib; first compound 1.265 µM)	relative viability (CAP-232 + Lapatinib; first compound 4 µM)	relative viability (CAP-232 + Lapatinib; first compound 12.65 µM)	relative viability (CAP-232; 0.4 µM)	relative viability (CAP-232; 1.265 µM)	relative viability (CAP-232; 4 µM)	relative viability (CAP-232; 12.65 µM)
EMC-BAC-2	0.36	0.31	0.353	0.28	0.818	0.395	0.483	0.383	1.23	1.25	1.38	0.935	0.951	0.914	0.928	0.917	1.19	0.941	0.995	0.866
NCI-H661	0.971	0.663	0.96	0.648	0.848	0.848	0.875	0.752	–	–	–	–	0.496	0.592	0.465	0.344	0.948	1.04	1.04	0.984
LU99A	0.769	0.493	0.675	0.492	0.533	0.492	0.589	0.533	1.03	0.818	0.864	0.78	0.964	1.03	1.13	1.05	0.969	0.919	0.986	0.984
LK-2	0.295	0.133	0.202	0.201	0.277	0.249	0.275	0.298	0.733	0.791	1.01	0.622	0.942	1.06	0.808	0.759	1.08	0.957	1.1	0.976
NCI-H3122	0.781	0.804	0.847	0.833	1.07	1.05	0.883	0.945	1.01	0.988	1.02	1.03	1	1.09	1	1.05	1	1	0.984	0.957
NCI-H2347	0.28	0.285	0.342	0.292	0.63	0.613	0.585	0.487	0.834	0.951	0.718	0.72	0.944	0.898	0.931	0.864	1.08	1.04	1.04	0.948
NCI-H1563	0.449	0.448	0.477	0.432	–	–	–	–	–	–	–	–	1.09	0.862	1.07	0.635	0.987	0.927	0.95	0.657
HCC-827	0.312	0.302	0.312	0.23	0.888	0.832	0.883	0.891	0.96	1	1.03	0.993	0.224	0.175	0.177	0.177	1.07	1.05	1.06	0.997
NCI-H1666	0.904	0.757	0.893	0.678	1.09	1.06	1.19	0.856	0.89	–	1.08	0.931	0.687	–	0.65	0.378	0.927	0.913	1.02	0.871
NCI-H358	0.183	0.151	0.124	0.179	0.755	0.709	0.71	0.375	–	–	–	–	0.395	0.393	0.436	0.445	0.979	0.918	0.927	0.81
201T	0.536	0.549	0.614	0.556	1.05	0.98	1	0.995	1.23	1.19	1.12	1.22	1.11	0.98	1.04	1.04	1.07	0.952	0.996	1.02
RERF-LC-KJ	0.695	0.871	0.735	0.27	0.817	0.763	0.706	0.485	1.05	1.08	1.02	0.703	0.96	0.859	1.03	0.861	1.07	1	0.99	0.935
NCI-H2405	0.233	0.203	0.196	0.208	1.22	1.09	1.01	0.79	0.821	1.07	0.795	0.562	1.03	0.99	1.12	0.722	1.01	0.972	1.05	0.786
LXF-289	0.224	0.194	0.238	0.21	0.89	0.785	0.772	0.774	0.998	0.956	0.964	0.959	0.952	0.903	0.914	0.953	1.04	1.02	1.06	0.993
EKVX	0.457	0.605	0.499	0.509	1.01	0.74	0.818	0.749	1.07	1.07	0.951	0.714	0.211	0.203	0.191	0.171	1.07	0.968	1.04	0.885
A-427	0.646	0.467	0.679	0.76	0.937	0.882	0.879	0.893	0.926	0.996	0.941	0.965	1.09	1.04	1.17	1.09	1.01	0.953	0.931	0.86

Cell Line	relative viability (CAP-232 + Dasatinib; first compound 0.4 µM)	relative viability (CAP-232 + Dasatinib; first compound 1.265 µM)	relative viability (CAP-232 + Dasatinib; first compound 4 µM)	relative viability (CAP-232 + Dasatinib; first compound 12.65 µM)	relative viability (CAP-232 + Vorinostat; first compound 0.4 µM)	relative viability (CAP-232 + Vorinostat; first compound 1.265 µM)	relative viability (CAP-232 + Vorinostat; first compound 4 µM)	relative viability (CAP-232 + Vorinostat; first compound 12.65 µM)	relative viability (CAP-232 + Navitoclax; first compound 0.4 µM)	relative viability (CAP-232 + Navitoclax; first compound 1.265 µM)	relative viability (CAP-232 + Navitoclax; first compound 4 µM)	relative viability (CAP-232 + Navitoclax; first compound 12.65 µM)	relative viability (CAP-232 + Lapatinib; first compound 0.4 µM)	relative viability (CAP-232 + Lapatinib; first compound 1.265 µM)	relative viability (CAP-232 + Lapatinib; first compound 4 µM)	relative viability (CAP-232 + Lapatinib; first compound 12.65 µM)	relative viability (CAP-232; 0.4 µM)	relative viability (CAP-232; 1.265 µM)	relative viability (CAP-232; 4 µM)	relative viability (CAP-232; 12.65 µM)
IA-LM	–	–	–	–	0.821	1.01	0.939	0.822	0.78	0.871	0.805	0.372	0.79	0.705	0.928	0.292	1.02	0.911	1.07	0.508
ChaGo-K-1	0.666	0.611	0.614	0.506	0.835	0.724	0.709	0.71	1.43	0.818	0.973	0.734	–	–	–	–	1.1	0.99	1.05	1.04
NCI-H2342	0.308	0.334	0.291	0.321	0.688	0.647	0.623	0.742	–	–	–	–	–	–	–	–	0.952	0.997	1.08	0.977
SK-MES-1	0.339	0.317	0.341	0.203	1.3	1.13	1.02	0.489	1.28	1.17	1.45	1.1	0.534	0.469	0.419	0.473	1.02	1.06	1.01	0.904
LCLC-97TM1	0.896	0.889	0.82	0.851	0.876	0.764	1.08	0.995	0.408	0.294	0.397	0.366	1.13	1.15	1.05	0.946	1.02	0.943	0.986	0.965
NCI-H2170	0.684	0.558	0.557	0.58	0.823	0.835	0.886	0.794	0.68	0.573	0.578	0.603	0.274	0.281	0.255	0.272	0.986	0.971	1.16	1.02
NCI-H441	0.653	0.857	0.7	0.543	0.879	0.824	0.936	0.77	0.554	0.756	0.717	0.641	–	–	–	–	1.07	0.969	1.07	0.921
ABC-1	0.582	0.562	0.53	0.448	1.48	–	1.13	0.952	–	–	–	–	1	1.12	0.887	1.26	0.968	0.789	0.957	0.603
NCI-H1792	0.811	0.743	0.95	0.78	–	–	–	–	1.2	0.638	0.656	0.452	1.48	0.917	0.95	0.856	1.44	0.775	0.878	0.777
HCC-44	–	–	–	–	1.08	1.08	1.15	1.13	1.03	0.977	1.16	1.14	1.14	1.03	1.05	0.987	1.11	0.988	0.963	0.978
NCI-H1703	–	–	–	–	–	–	–	–	1.09	0.901	0.964	0.793	1.44	1.01	1.21	0.882	0.854	0.917	0.961	0.764
A549	–	–	–	–	–	–	–	–	1.33	1.19	1.25	0.482	1.1	1	1.05	0.42	0.999	0.895	1.14	0.597
NCI-H522	1.1	0.73	0.914	0.735	0.971	0.9	0.93	0.867	–	–	–	–	–	–	–	–	0.967	0.982	1.01	0.916
SW 900	0.644	0.614	0.64	0.591	0.727	0.453	0.432	0.429	–	–	–	–	–	–	–	–	0.962	0.881	0.953	0.845
NCI-H650	0.509	0.426	0.521	0.417	0.505	0.423	0.364	0.457	–	–	–	–	1.17	0.879	0.966	0.958	1.03	0.979	1.02	0.91
LCLC-103H	0.528	0.455	0.499	0.403	0.875	0.729	0.827	0.825	–	–	–	–	–	–	–	–	1.13	0.984	1.08	0.967
